{"source": "patent US9462808B2", "about": "“Pesticidal compositions” (Syngenta Participants AG, priority 2010, dated 2016)", "format_in_all_cases": "in vivo", "key": {"[1]": {"tested_on": "Wheat, Triticium durum (Poaceae) var. Arina", "experiment": "Reduction of phytotoxicity by safeners applied as seed treatment with compound of formula I on wheat (Example B4)", "protocol": "Test compounds: compound P1.2 according to Table P1, as SC 050; Safener 1=cloquintocet-mexyl, as WP 25, Safener 2=mefenpyr-diethyl as WP 25, Safener 3═N-(2-methoxybenzoyl)-4-[(methylaminocarbonyl)amino]benzenesulfonamide, as SC 100. • Plants: Wheat, Triticium durum (Poaceae) var. Arina • Seed treatment: The seeds were treated by shaking the seeds with a slurry for 30 seconds in a glass flask. Treatments were 10% overdosed to compensate for substance adhering to the flask. In a first step, compound P1.2 was treated on the seeds. Afterwards the safeners were treated on the dried seeds. […] The loading rates of the safeners were 0.5, 0.1 and 0.025 mg a.i./seed. Soil: “Drench soil”, loamy sand, prefertilised with 1 g/I soil of Landor 13.1.3.21. • Procedures: 9-cm pots were filled with 330 ml of Drench soil loamy sand and the seeds were placed into the soil in about 5 mm beneath the soil surface. • Conditions: During the growth period the plants were kept in a randomised fashion in a greenhouse chamber at 25° C. during daytime, 23° C. during night, 50-60% rH, a 14-hour photoperiod and artificial lighting when natural light fell below 20 kLux. During the exposure the assay was kept at 22° C. • Assessments: 14 days after emergence, the phytotoxicity was recorded."}, "[2]": {"tested_on": "Nilaparvata lugens (brown plant hopper, BPH)", "experiment": "Activity against Nilaparvata lugens (brown plant hopper, BPH) on rice, spray with safeners, 7 d after application (Example B2)", "conditions": "168 h, read-out: % mortality, corr.; for mortality at 25 ppm: 25 ppm AI; for mortality at 50 ppm: 50 ppm AI; for mortality at 100 ppm: 100 ppm AI; for mortality at 200 ppm: 200 ppm AI", "protocol": "Eight replicates (pots with rice plants) were sprayed with respective test solutions. Test solutions contained the formulated test compound and the safener cloquintocet and N-(2-methoxybenzoyl)-4-[(methylaminocarbonyl)amino]-benzenesulfonamide at different ratios. 4 pots were infested with plant hopper nymphs right after application. 7d after application BPH mortality and plant safety were evaluated. […] Assessment on plant safety was done by measuring the average plant height per replicate."}, "[3]": {"tested_on": "Rhopalosiphum padi (cereal aphid)", "experiment": "Activity against Rhopalosiphum padi (cereal aphid) on wheat, spray with safener cloquintocet, 6 days after application (Example B1)", "conditions": "144 h, test compound 25 ppm, adjuvant Mero 0.1% v/v, 6 days after application, Abbott's formula, read-out: Efficacy (% mortality) against cereal aphids (Rhopalosiphum padi)", "protocol": "One replicate consisted of 4 wheat plants per pot. […] 9 days after seeding all wheat plants (10replicates) were sprayed with respective test solutions. […] 6 days after application aphid mortality and phytotoxicity were evaluated. […] Additionally the average plant height per replicate was measured."}, "[4]": {"tested_on": "Rhopalosiphum padi (cereal aphid)", "experiment": "Activity against Rhopalosiphum padi (cereal aphid) on wheat, selected safeners at different mixture ratios, 7 DAA (Example B3)", "conditions": "AI rate 12.5 ppm", "protocol": "One replicate consisted of 4 wheat plants per pot. […] Test solutions contained the formulated test compounds, the adjuvant Mero (0.1% v/v), and selected safeners at different mixture ratios. 7d after application aphid mortality and was evaluated."}}, "note": "Like-named read-outs stand apart in the source and are kept apart here.", "data": [{"smiles": "CCOC(=O)OC1=C(c2c(C)cc(C)cc2C)C(=O)N(C)C12CCN(OC)CC2", "note": "[Compound P1.2, Carbonic acid ethyl ester 8-methoxy-1-methyl-2-oxo-3-(2,4,6-trimethyl-phenyl)-1,8-diaza-spiro[4.5]dec-3-en-4-yl ester]", "values": [{"measurement": "Phytotoxicity after seed treatment", "setting": "[1]; P1.2 0.1 mg a.i./seed with safeners (cloquintocet-mexyl, mefenpyr-diethyl, N-(2-methoxybenzoyl)-4-[(methylaminocarbonyl)amino]benzenesulfonamide), wheat, 14 days after emergence", "value": "safeners protect the plants from the adverse effects"}, {"measurement": "Phytotoxicity (%) of compound P1.2 on wheat, control without safener", "setting": "[1]; seed treatment, 1 mg compound P1.2, without safener", "value": "Control: application of 1 mg compound P1.2. without safener results in 64.3% phyotoxicity"}, {"measurement": "mortality at 12.5 ppm", "setting": "[2]; 12.5 ppm AI, Safener 2, ratio AI:safener 0.9:1, 7 d after application", "value": 0, "unit": "%"}, {"measurement": "mortality at 25 ppm", "setting": "[2]; Cloquintocet, ratio AI:safener 1.9:1, 7 d after application", "value": 30, "unit": "%"}, {"measurement": "mortality at 25 ppm", "setting": "[2]; Safener 2, ratio AI:safener 1.9:1, 7 d after application", "value": 3, "unit": "%"}, {"measurement": "mortality at 50 ppm", "setting": "[2]; Cloquintocet, ratio AI:safener 1.25:1, 7 d after application", "value": 57, "unit": "%"}, {"measurement": "mortality at 50 ppm", "setting": "[2]; Safener 2, ratio AI:safener 1.25:1, 7 d after application", "value": 42, "unit": "%"}, {"measurement": "mortality at 100 ppm", "setting": "[2]; Cloquintocet, ratio AI:safener 7.5:1, 7 d after application", "value": 78, "unit": "%"}, {"measurement": "mortality at 100 ppm", "setting": "[2]; Safener 2, ratio AI:safener 7.5:1, 7 d after application", "value": 68, "unit": "%"}, {"measurement": "mortality at 200 ppm", "setting": "[2]; Cloquintocet, ratio AI:safener 15:1, 7 d after application", "value": 93, "unit": "%"}, {"measurement": "mortality at 200 ppm", "setting": "[2]; Safener 2, ratio AI:safener 15:1, 7 d after application", "value": 85, "unit": "%"}, {"measurement": "mortality at 25 ppm", "setting": "[3]; ratio AI:safener cell blank (no safener), wheat", "value": 97.4, "unit": "%"}, {"measurement": "mortality at 25 ppm", "setting": "[3]; safener cloquintocet, ratio AI:safener 1:1, wheat", "value": 93.4, "unit": "%"}, {"measurement": "mortality at 25 ppm", "setting": "[3]; safener cloquintocet, ratio AI:safener 1:2, wheat", "value": 94.4, "unit": "%"}, {"measurement": "Efficacy (% mortality) against cereal aphids (Rhopalosiphum padi) 7DAA", "setting": "[4]; + Cloquintocet-mexyl, ratio AI:safener 1:2", "value": 94, "unit": "%"}, {"measurement": "Efficacy (% mortality) against cereal aphids (Rhopalosiphum padi) 7DAA", "setting": "[4]; + Cloquintocet-mexyl, ratio AI:safener 1:4", "value": 91, "unit": "%"}, {"measurement": "Efficacy (% mortality) against cereal aphids (Rhopalosiphum padi) 7DAA", "setting": "[4]; + Cloquintocet-mexyl, ratio AI:safener 1:8", "value": 91, "unit": "%"}, {"measurement": "Efficacy (% mortality) against cereal aphids (Rhopalosiphum padi) 7DAA", "setting": "[4]; + Mefenpyr-diethyl, ratio AI:safener 1:2", "value": 97, "unit": "%"}, {"measurement": "Efficacy (% mortality) against cereal aphids (Rhopalosiphum padi) 7DAA", "setting": "[4]; + Mefenpyr-diethyl, ratio AI:safener 1:4", "value": 92, "unit": "%"}, {"measurement": "Efficacy (% mortality) against cereal aphids (Rhopalosiphum padi) 7DAA", "setting": "[4]; + Mefenpyr-diethyl, ratio AI:safener 1:8", "value": 92, "unit": "%"}, {"measurement": "Efficacy (% mortality) against cereal aphids (Rhopalosiphum padi) 7DAA", "setting": "[4]; + Safener 2 (N-(2-methoxybenzoyl)-4-[(methylaminocarbonyl)amino]benzenesulfonamide), ratio AI:safener 1:2", "value": 97, "unit": "%"}, {"measurement": "Efficacy (% mortality) against cereal aphids (Rhopalosiphum padi) 7DAA", "setting": "[4]; + Safener 2 (N-(2-methoxybenzoyl)-4-[(methylaminocarbonyl)amino]benzenesulfonamide), ratio AI:safener 1:4", "value": 95, "unit": "%"}, {"measurement": "Efficacy (% mortality) against cereal aphids (Rhopalosiphum padi) 7DAA", "setting": "[4]; + Safener 2 (N-(2-methoxybenzoyl)-4-[(methylaminocarbonyl)amino]benzenesulfonamide), ratio AI:safener 1:8", "value": 97, "unit": "%"}, {"measurement": "Efficacy (% mortality) against cereal aphids (Rhopalosiphum padi) 7DAA", "setting": "[4]; no safener, spray on wheat, Abbott's formula", "value": 98, "unit": "%"}]}]}
